{
  "source": "patent US10995186B2",
  "about": "“Light-activated preparation of hydrogels” (Otago Innovation Limited, priority 2015, dated 2021)",
  "key": {"[1]": {"test_system": "human ovarian adenocarcinoma cell lines (SKOV3)", "assay": "cells", "details": "SK-OV-3, 96 h", "procedure": "(§1) Experiments were carried out with human ovarian adenocarcinoma cell lines (SKOV3) and normal human foreskin fibroblasts (HFF). […] Cells were expanded at 37° C. in a humidified 5% CO2/95% air incubator and media was changed twice a week.\n(§2) Each cell encapsulated microspheres was then transferred to well in a 96-well polystyrene plate (Falcon). 150 μL of cell culture media was then pipetted into the wells and placed in the incubator and the media was changed twice a week."}, "[2]": {"test_system": "human ovarian adenocarcinoma cell lines (SKOV3)", "procedure": "as §1, §2"}, "[3]": {"test_system": "co-culture (75% SKOV3 and 25% HFF) cells"}, "[4]": {"test_system": "co-culture (75% SKOV3 and 25% HFF) cells", "assay": "cells", "details": "Homo sapiens, 96 h"}, "[5]": {"test_system": "assembled cancer construct", "assay": "Darkfield images of doxorubicin-treated cancer construct", "type": "cell-based, human", "description": "To print the assembled construct (n=3) a layer-by-layer approach was opted so as to not limit the height of the scaffold that can be constructed using the system. In this scheme the first layer of the scaffold (8 layers of fibre strands) was printed (as described earlier) and then 4 (2×2 fashion) live microspheres were inserted into the pores of the 3D plotted scaffold. This process was repeated to generate a second layer of the scaffold (4 layers of fibre strands) and then 4 more microspheres were inserted into the scaffold. But for the manually assembled scaffold, the whole scaffold was printed at once and the micro-tissues were inserted manually into pre-printed scaffolds in a similar format to the ones assembled with the automated system.\nThe cytotoxicity test was used to evaluate in vitro antitumor activity of Doxorubicin on cells in 2D, microspheres and assembled cancer construct. […] On day 1 of forming the microspheres, SKOV3, HFF and co-culture cancer constructs were manually assembled and transferred to a 24-well plate with 1.2 ml of media per well. On day 7, for the cytotoxicity test on 2D model, SKOV3s, HFFs and co-culture (75% SKOV3 and 25% HFF) cells were seeded onto a 48-well plate at 30,000 cells and 200 μl of media per well. […] Media with 5% FBS containing the specific concentration of drug was changed every 2 days. […]"}, "[6]": {"test_system": "normal human foreskin fibroblasts (HFF)", "assay": "cells", "details": "Fibroblast, 96 h"}, "[7]": {"test_system": "normal human foreskin fibroblasts (HFF)", "details": "Fibroblast"}, "[8]": {"test_system": "human articular chondrocytes (HAC)", "assay": "GAG assay of HAC encapsulated in Gel-MA hydrogels", "type": "cell-based", "details": "at 21 days", "experimental": "Cell-laden Gel-MA samples were digested overnight in 200 μL of 1 mg/ml proteinase-K solution at 56° C. In order to quantify the amount of GAG retained in the gel, the digested samples were reacted with DMMB. The absorbance of the samples was then measured at 492 nm (Fluostar Galaxy BMG Labtechnology). The GAG concentrations were calculated from a standard curve constructed using known concentrations of CS-A. The amount of DNA in the gels was measured using the CyQUANT kit. The cells in the digested samples were firstly lysed and RNA degraded using the provided lysis buffer with RNase A (1.35 KU/ml) added for 1 hour at RT. GR-dye solution was then added to the samples, incubated at RT for 15 minutes then the fluorescence was measured (Fluostar Galaxy BMG Labtechnology). A standard curve was constructed using the DNA provided in the kit."}, "[9]": {"test_system": "Breast adenocarcinoma cells (MCF-7)", "procedure": "A live/dead assay was performed after 1 day to evaluate the viability of encapsulated MCF-7 cells."}, "[10]": {"test_system": "human articular chondrocytes (HAC)", "assay": "Photo-toxicity and radical toxicity evaluation, HAC on 2D surfaces", "details": "7 days post treatment, light plus initiator", "procedure": "(§3) Articular cartilage biopsies were harvested with ethics approval from a consenting patient. The cartilage was diced into 1 to 2 mm cubes and digested overnight at 37° C. with 0.15% w/v collagenase type II in basic chondrocyte media (DMEM high glucose media supplemented with 10% FCS, 10 mM HEPES, 0.2 mM L-ascorbic acid-2-phosphate, 0.4 mM L-proline and 1% PS). The resulting suspension was filtered through a 100-μm cell strainer (BD Biosciences) to exclude the undigested tissue and centrifuged at 700-g for 4 min. The isolated chondrocytes (HAC) were cultured in basic chondrocyte media and expanded at 37° C. in a humidified 5% CO2/95% air incubator.\n(§4) HAC in culture flasks were trypsinised, suspended in basic chondrocyte media, and seeded in 48 well plates at a concentration of 50 HACs/mm^2. The cells were firstly allowed to attach to the surface for 4 hours, then exposed to either 30 mW/cm^2 of UV or visible light (15 minutes), with or without 0.05 wt % of 12959 or 0.2/2 Ru/SPS (mM) respectively. […] After 1 and 7 days, the cells were visualised and quantified using the live/dead assay. […]\n(§5) The cells will stain green if alive and red if dead. After staining, the gels were washed with PBS for three times before imaging them using a fluorescence microscope (Zeiss axioimager Z1). The cells were quantified using the ImageJ software and the cell viability was calculated using the equation below:"}, "[11]": {"test_system": "human articular chondrocytes (HAC)", "procedure": "as §3, §4, §5"}, "[12]": {"assay": "Deformation of thickness (oxygen inhibition) of Gel-MA/collagen hydrogel", "type": "physicochemical", "details": "Gel-MA+Collagen 1 discs", "experimental": "The constructs were then irradiated for 15 minutes in the presences of a photo-initiator and a light source, where the surfaces of the constructs were exposed to oxygen. In a first experiment, the light intensity was kept at 3 mW/cm^2 whereas the photo-initiator concentrations were varied from 0.05 to 0.5 wt % and 0.2/2 mM to 2/20 mM for 12959 and Ru/SPS respectively. In a second experiment the light intensity was varied from 3 to 100 mW/cm^2 while keeping the photo-initiator concentrations constant at 0.05 wt % and 0.2/2 mM for 12959 and Ru/SPS respectively. The level of oxygen inhibition was characterised as the deformation of thickness before (to) and after equilibrium swelling (ts). The deformation of thickness is given by the equation: Deformation of thickness=[(t0−ts)/t0]×100."}, "[13]": {"details": "read-out: IC50 Assembled construct"}},
  "note": "pIC50: −log10 of the molar value. Like-named read-outs stand apart in the source and are kept apart here.",
  "data": [
    {"compound": "COc1cccc2c1C(=O)c1c(O)c3c(c(O)c1C2=O)C[C@@](O)(C(=O)CO)C[C@@H]3O[C@H]1C[C@H](N)[C@H](O)[C@H](C)O1", "note": "[doxorubicin, Doxorubicin]", "values": [
      {"measurement": "pIC50", "setting": "[1]; read-out: IC50 2D", "value": 7.30},
      {"measurement": "pIC50", "setting": "[1]; [13]", "value": 5.62},
      {"measurement": "pIC50", "setting": "[1]; read-out: IC50 Microspheres", "value": 6.82},
      {"measurement": "Fold change in IC50 Assembled construct/microspheres", "setting": "[2]", "value": 16.33},
      {"measurement": "Fold change in IC50 Assembled construct/monolayer", "setting": "[2]", "value": 48.32},
      {"measurement": "Fold change in IC50 Microspheres/monolayer", "setting": "[2]", "value": 2.96},
      {"measurement": "Fold change in IC50 Assembled construct/microspheres", "setting": "[3]", "value": 19.34},
      {"measurement": "Fold change in IC50 Assembled construct/monolayer", "setting": "[3]", "value": 70.14},
      {"measurement": "Fold change in IC50 Microspheres/monolayer", "setting": "[3]", "value": 3.63},
      {"measurement": "pIC50", "setting": "[4]; read-out: IC50 2D", "value": 7.10},
      {"measurement": "pIC50", "setting": "[4]; [13]", "value": 5.25},
      {"measurement": "pIC50", "setting": "[4]; read-out: IC50 Microspheres", "value": 6.54},
      {"measurement": "tissue present in cancer construct (darkfield images)", "setting": "[5]; 1 μM drug", "value": "atrophy of the tissue"},
      {"measurement": "tissue present in cancer construct (darkfield images)", "setting": "[5]; 10 μM drug", "value": "almost no tissue present"},
      {"measurement": "pIC50", "setting": "[6]; read-out: IC50 2D", "value": 6.80},
      {"measurement": "pIC50", "setting": "[6]; [13]", "value": 5.42},
      {"measurement": "pIC50", "setting": "[6]; read-out: IC50 Microspheres", "value": 6.74},
      {"measurement": "Fold change in IC50 Assembled construct/microspheres", "setting": "[7]", "value": 21.41},
      {"measurement": "Fold change in IC50 Assembled construct/monolayer", "setting": "[7]", "value": 24.32},
      {"measurement": "Fold change in IC50 Microspheres/monolayer", "setting": "[7]", "value": 1.14}
    ]},
    {"compound": "CC(C)(O)C(=O)c1ccc(OCCO)cc1", "note": "[UV+I2959, 1-[4-(2-hydroxyethoxy)-phenyl]-2-hydroxy-2-methyl-1-propane-1-one]", "values": [
      {"measurement": "GAG/gel", "setting": "[8]", "value": 0.1, "unit": "µg/mg"},
      {"measurement": "cell viability", "setting": "[9]", "value": 50, "unit": "%"},
      {"measurement": "cell morphology (live-dead stain)", "setting": "[10]", "value": "the cells became rounded"},
      {"measurement": "number of cells attached", "setting": "[11]", "value": 20, "unit": "HACs/mm^2"},
      {"measurement": "reduction of thickness (deformation of thickness)", "setting": "[12]; 3 mW/cm^2, 0.05 wt % I2959 or 0.2/2 Ru/SPS (mM)", "value": "~55", "unit": "%"},
      {"measurement": "deformation of thickness", "setting": "[12]; 3 mW/cm^2, 0.5 wt % I2959 or 2/20 Ru/SPS (mM), controls without oxygen <10%", "value": "comparable to the controls"}
    ]}
  ]
}
